According to paper PMC12261321, “Inhibitors of the Bacterioferritin Ferredoxin Complex Dysregulate Iron Homeostasis and Kill and Biofilm-Embedded Cells” (ACS Infectious Diseases, 2025):
≈ marks a conversion by molar mass, not a printed value.

How the values were obtained:
Type in all cases: cell-based
[1] = system: A. baumannii ATCC 17978; assay: MIC, broth microdilution in M63 media; settings: 20 h
Protocol: (§1) Measurement of Minimum Inhibitory Concentrations (MIC). The MIC of compounds and select ed antibiotics against three strains of A. baumannii (5075, ATCC 17988, and ATCC 19606) were determined via the broth microdilution method according to Clinical and Laboratory Standard Instit ute (CLSI) guidelines,15 but culturing […]
(§2) To establish a 2-fold dilution series of compound, 985 μ L of diluted cells was mixed with 15 μ L of compound […]
(§3) dissolved in DMSO, such that the resultant solution had the highest concentration of compound or antibiotic tested and 1.5% DMSO. To carry out the serial dilution from the highest compound concentration, a 150 μ L solution of higher concentration compound or antibiotic was mixed with 150 μ L of cell suspension containing 1.5% DMSO in the wells of a 96 well plate.
(§4) Th e 96 well plate was in cubated for 20 hat 35 °C with continuous orbital shaking (205 cpm) in an Epoch2 microplate reader (BioTek), monitoring the growth by […]
(§5) following the OD600. […]
(§6) FFFFFF = MMMMMMAA iiii ccllccbbiiiicccciilliiMMMMMMAA+ MMMMMMBB iiii ccllccbbiiiicccciilliiMMMMMMBB S2 Time Kill Assays. Time-kill assays were performed with A. baumannii 507 5 by the broth macro- dilution method in M63- medium containing 1.5% DMSO. An overnight culture was diluted to approximately 5 x10^5 CFU/mL in fresh M63 media. The test solutions were prepared by adding compound (KM-5- 35, or KM-5- 25) dissolved in DMSO to 5 mL of diluted cell suspension to yield a solution of the desired compound concentration and 1.5% DMSO, or by the addition of antibiotic dissolved in water and a small volume of DMSO to produce the desired

[2] = system: A. baumannii ATCC 19606; assay: MIC, broth microdilution in M63 media; settings: 20 h
Protocol: as §1, §2, §3, §4, §5, §6

[3] = system: A. baumannii 5075; assay: MIC, broth microdilution in M63 media; settings: 20 h
Protocol: as §1, §2, §3, §4, §5, §6

[4] = system: P. aeruginosa PAO1; assay: Compound intracellular accumulation in P. aeruginosa PAO1; settings: ‡ treatment with 15 µM compound

**Q.** How did the MIC [1] turn out when `Cc1cc(CNc2cccc3c2C(=O)NC3=O)c(O)cc1Br` [SB-16-183] was run?
**A.** The MIC was 20 µM (≈ 7.22 µg/mL).

**Q.** And the MIC [2]?
**A.** The MIC was > 20 µM.

**Q.** What about the MIC [3] of the same compound?
**A.** Its MIC is 20 µM (≈ 7.22 µg/mL).

**Q.** And the “Intracell. Accum, P. aeruginosa PAO1” value [4]?
**A.** Its value is 379 ± 48 nmol/1012 CFU.

**Q.** `O=C1NC(=O)c2c(NCc3cc(Cl)ccc3O)ccc(Br)c21` [SB-16-51] was tested. Which MIC [1] did it give?
**A.** Its MIC is 15 µM (≈ 5.72 µg/mL).

**Q.** What about the MIC [2] of the same compound?
**A.** Its MIC is 15 µM (≈ 5.72 µg/mL).

**Q.** What about the MIC [3] of the same compound?
**A.** The MIC was 10 µM (≈ 3.82 µg/mL).

**Q.** And the “Intracell. Accum, P. aeruginosa PAO1” value [4]?
**A.** The value was 425 ± 79 nmol/1012 CFU.

**Q.** How did the MIC [1] turn out when `O=C1NC(=O)c2c(NCc3cc(Br)ccc3O)ccc(Cl)c21` [SB-16-124] was run?
**A.** Its MIC is 20 µM (≈ 7.63 µg/mL).

**Q.** What about the MIC [2] of the same compound?
**A.** The MIC was 20 µM (≈ 7.63 µg/mL).

**Q.** And the MIC [3]?
**A.** Its MIC is 20 µM (≈ 7.63 µg/mL).

**Q.** What about the “Intracell. Accum, P. aeruginosa PAO1” value [4] of the same compound?
**A.** Its value is 558 ± 154 nmol/1012 CFU.
